Assay [1] has as its target T1, human serotonin transporter (hSERT) (Homo sapiens, UniProt P31645).
T1 construct: expressed in transfected cells; host or cells: HEK-293
The experiment in a line: SPA radioligand binding at human serotonin transporter (3H-citalopram). Conditions: hSERT membranes from HEK-293 cells, Ki from IC50 by Cheng-Prusoff, geometric mean, read-out: SRI Ki. As to the method:
(§1) The compounds were tested for biological activity by their ability to inhibit binding of selective radioligands at the human serotonin and noradrenaline transporters (SERT and NET, respectively), using scintillation proximity assay (SPA) technology. The SPA binding was performed using cellular membrane preparations prepared from cell lines expressing human cDNA encoding either SERT or NET (hSERT, hNET), using the radioligands ^3H-citalopram and ^3H-nisoxetine.
(§2) Human embryonic kidney cells (HEK-293) expressing each transporter were maintained as a continuous culture, using standard cell culture techniques, in 50 mL of growth medium (see Media and Buffers for composition) in 225 cm^2 flasks, at 37° C. in a humidified atmosphere with 5% CO2 present. Cells were passaged from a 90% confluent monolayer at a ratio of 1:3–1:4.
(§3) For cell harvesting, the growth medium was removed from the monolayer and the cells were incubated with cell dissociation solution (Sigma) until showing signs of dissociation. The cells were subsequently knocked from the base of the flask and pelleted by centrifugation for storage (frozen at −80° C.) prior to further use.
(§4) Cell pellets were thawed on ice and resuspended in 3 mL of membrane preparation buffer (see Media and Buffers for composition) per 1 mL of packed cell volume, using a vortex mixer to disperse the cell pellet. After incubation on ice for 10 minutes, the suspension was homogenised for four individual 10 second intervals using a hand-held homogeniser. The homogenate was then centrifuged at 1075×g for 20 minutes at 4° C.
(§5) The supernatants were then collected and retained. […]
(§6) The pooled supernatants were centrifuged at 35000×g for 30 minutes at 4° C., and the supernatants discarded. […] Protein concentrations were then measured and the membrane suspension was finally frozen in aliquots of set volume and stored at −80° C. prior to use in assays.
(§7) The specific SPA bead type differed for each transporter, wheat germ agglutinin-coated yttrium silicate (YSi WGA) SPA beads were used for hSERT and WGA-coated polyvinyltoluene (PVT WGA) SPA beads for hNET assays. For each batch of membrane used, optimal concentrations of bead and membrane were determined
(§8) Tritiated radioligands specific to each transporter (^3H-citalopram for hSERT and ^3H-nisoxetine for hNET) were used. The assay free radioligand concentration was expressed as a percentage of the total free radioligand concentration to give an estimate of the radioligand depletion. […]
(§9) The affinity of the specific radioligand for the respective transporter was determined for each membrane batch at the selected protein and bead concentrations. […]
(§10) The mean KD for a radioligand at a batch of membranes was determined from data from a minimum of three separate assays. […]

Assay [2] addresses T2, human noradrenaline transporter (hNET) (Homo sapiens, UniProt P23975).
T2 construct: expressed in transfected cells; host or cells: HEK-293
The assay can be described thus: SPA radioligand binding at human noradrenaline transporter (3H-nisoxetine). Conditions: hNET membranes from HEK-293 cells, Ki from IC50 by Cheng-Prusoff, geometric mean, read-out: NRI Ki. As to the method: as §1, §2, §3, §4, §5, §6, §7, §8, §9, §10

Each structure is given as a SMILES string. pKi: −log10 of the molar value. Where a name gives a salt, the structure may show the parent alone.

T1 sequence (P31645 whole entry): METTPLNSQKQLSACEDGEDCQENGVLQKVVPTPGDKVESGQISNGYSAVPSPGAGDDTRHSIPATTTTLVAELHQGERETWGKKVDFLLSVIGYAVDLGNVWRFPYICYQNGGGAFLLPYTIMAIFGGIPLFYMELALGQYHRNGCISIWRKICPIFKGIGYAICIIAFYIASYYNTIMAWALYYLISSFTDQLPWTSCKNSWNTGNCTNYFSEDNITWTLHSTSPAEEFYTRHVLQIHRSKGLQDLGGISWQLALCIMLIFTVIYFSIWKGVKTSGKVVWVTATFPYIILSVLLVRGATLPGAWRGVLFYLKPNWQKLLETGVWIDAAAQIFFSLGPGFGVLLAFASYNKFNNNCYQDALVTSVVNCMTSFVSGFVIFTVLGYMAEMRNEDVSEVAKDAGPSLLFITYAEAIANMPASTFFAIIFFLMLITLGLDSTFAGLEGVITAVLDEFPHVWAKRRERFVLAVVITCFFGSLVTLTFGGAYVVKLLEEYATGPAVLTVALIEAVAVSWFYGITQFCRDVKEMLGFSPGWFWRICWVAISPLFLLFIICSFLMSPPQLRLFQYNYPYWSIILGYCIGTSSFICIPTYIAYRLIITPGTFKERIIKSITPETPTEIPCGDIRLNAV
T2 sequence (P23975 whole entry): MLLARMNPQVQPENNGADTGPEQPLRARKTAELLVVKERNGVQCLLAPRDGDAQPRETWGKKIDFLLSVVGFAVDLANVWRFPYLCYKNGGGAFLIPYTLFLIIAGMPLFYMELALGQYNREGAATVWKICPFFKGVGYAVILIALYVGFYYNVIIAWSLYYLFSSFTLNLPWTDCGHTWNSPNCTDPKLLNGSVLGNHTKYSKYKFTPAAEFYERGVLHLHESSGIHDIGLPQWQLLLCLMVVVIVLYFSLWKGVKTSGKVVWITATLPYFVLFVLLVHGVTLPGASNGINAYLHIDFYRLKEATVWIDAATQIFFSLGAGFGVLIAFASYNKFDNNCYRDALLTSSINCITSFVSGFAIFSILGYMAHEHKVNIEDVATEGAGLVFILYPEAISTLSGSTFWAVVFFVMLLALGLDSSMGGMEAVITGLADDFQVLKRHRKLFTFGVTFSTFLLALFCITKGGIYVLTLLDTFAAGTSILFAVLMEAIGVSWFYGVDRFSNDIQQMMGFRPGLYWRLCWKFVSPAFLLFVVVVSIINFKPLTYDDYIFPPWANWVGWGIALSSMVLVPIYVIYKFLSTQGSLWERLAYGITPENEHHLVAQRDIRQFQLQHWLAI

With `Cc1c(Cl)cccc1C(=O)N(CC1(C)CC1)[C@H]1CCNC1` [Example 20, 3-chloro-2-methyl-N-[(1-methylcyclopropyl)methyl]-N-[(3S)pyrrolidin-3-yl]benzamide hydrochloride], the pKi (in general, the Ki on a negative log10 scale, so that one unit is a factor of ten) in assay [1] was 8.52; in assay [2] it was 7.85.
Turning to `O=C(c1cccc(Cl)c1Cl)N(C1CCCCC1)[C@H]1CCNC1` [Example 6, 2,3-dichloro-N-cyclohexyl-N-[(3S)-pyrrolidin-3-yl]benzamide hydrochloride], the pKi in assay [1] was 8.05; in assay [2], 7.96.
For `O=C(c1ccccc1Cl)N(C1CCCCC1)[C@H]1CCNC1` [Example 14, 2-chloro-N-cyclohexyl-N-[(3S)pyrrolidin-3-yl]benzamide] the same measures were 7.96 and 8.05.
For `O=C(c1cccc(Cl)c1Cl)N(C1CCCC1)[C@H]1CCNC1` [Example 1, 2,3-dichloro-N-cyclopentyl-N-[(3S)pyrrolidin-3-yl]benzamide hemi-edisylate], in that order: 8.30 and 7.82.

The values are drawn from US7122683B2, “Amides useful as monoamine re-uptake inhibitors” (Pfizer Inc., priority 2004, dated 2006).
